From ChEMBL document CHEMBL1128035, “Structural optimization of alkyl-substituted 2-(7-5H-[1]benzopyrano[2,3-b]pyridyl)propionic acid as anti-inflammatory agents” (Bioorg Med Chem Lett, 1995)

Assays:
[1] = Partition coefficient measured in n-octanol/ pH 7.4 phosphate buffer; type: physicochemical
[2] = molecular target: T1, Prostaglandin G/H synthase 1 (Ovis aries, UniProt P05979); test: Inhibitory activity against COX-1 from ram seminal vesicles
T1 sequence (P05979 whole entry): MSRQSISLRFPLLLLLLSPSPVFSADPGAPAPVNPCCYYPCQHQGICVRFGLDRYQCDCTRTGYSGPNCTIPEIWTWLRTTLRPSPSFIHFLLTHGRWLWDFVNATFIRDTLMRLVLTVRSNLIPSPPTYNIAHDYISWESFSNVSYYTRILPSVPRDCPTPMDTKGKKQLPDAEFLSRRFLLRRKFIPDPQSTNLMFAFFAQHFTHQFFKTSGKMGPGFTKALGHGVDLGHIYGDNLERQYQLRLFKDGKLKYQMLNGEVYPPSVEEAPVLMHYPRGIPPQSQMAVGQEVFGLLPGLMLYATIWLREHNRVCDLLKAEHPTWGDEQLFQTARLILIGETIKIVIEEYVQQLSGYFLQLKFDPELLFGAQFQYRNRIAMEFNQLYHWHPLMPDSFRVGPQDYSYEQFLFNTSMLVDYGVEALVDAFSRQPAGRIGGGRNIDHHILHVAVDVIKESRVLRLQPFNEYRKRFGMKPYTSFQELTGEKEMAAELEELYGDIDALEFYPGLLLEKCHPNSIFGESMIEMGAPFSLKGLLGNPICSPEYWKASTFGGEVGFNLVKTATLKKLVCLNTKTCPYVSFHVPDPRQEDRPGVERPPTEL

[3] = molecular target: T2, Prostaglandin G/H synthase 1 (Rattus norvegicus, UniProt Q63921); test: Inhibitory activity against COX-1 from rat peritoneal leukocytes, measured by PGE-2 produced (enzyme immunoassay)
T2 sequence (Q63921 whole entry): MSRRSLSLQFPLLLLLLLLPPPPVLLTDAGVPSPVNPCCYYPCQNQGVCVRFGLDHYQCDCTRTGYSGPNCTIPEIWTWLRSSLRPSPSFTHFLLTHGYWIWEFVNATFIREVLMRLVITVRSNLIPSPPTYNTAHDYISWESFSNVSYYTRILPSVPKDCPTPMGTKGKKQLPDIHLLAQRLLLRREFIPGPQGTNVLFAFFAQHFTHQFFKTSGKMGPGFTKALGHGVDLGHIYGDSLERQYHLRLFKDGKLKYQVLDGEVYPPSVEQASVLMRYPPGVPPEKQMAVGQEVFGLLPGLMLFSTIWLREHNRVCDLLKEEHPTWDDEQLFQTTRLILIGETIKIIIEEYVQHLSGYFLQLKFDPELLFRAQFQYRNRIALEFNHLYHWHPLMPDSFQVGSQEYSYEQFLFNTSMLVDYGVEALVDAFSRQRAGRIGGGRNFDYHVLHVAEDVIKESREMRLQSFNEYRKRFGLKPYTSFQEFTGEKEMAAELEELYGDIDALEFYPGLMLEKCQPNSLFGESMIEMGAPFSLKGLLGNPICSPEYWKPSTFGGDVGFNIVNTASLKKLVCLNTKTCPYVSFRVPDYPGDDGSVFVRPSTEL

| logD [1] | IC50 [2] [nM] | IC50 [3] [nM] | Compound |
| --- | --- | --- | --- |
| 1.08 | > 100000 | – | CCCc1ccc2c(n1)Oc1ccc(C(C)C(=O)O)cc1C2 (configuration not stated) |
| -0.72 | 3100 | 390 | CC(C(=O)O)c1ccc2c(c1)Cc1cccnc1O2 (configuration not stated) [PRANOPROFEN] |
| 0.45 | 850 | 110 | CCc1ccc2c(n1)Oc1ccc(C(C)C(=O)O)cc1C2 (configuration not stated) |
| -0.17 | > 100000 | – | Cc1ccnc2c1Cc1cc(C(C)C(=O)O)ccc1O2 (configuration not stated) |
| 0.03 | 11000 | – | Cc1cnc2c(c1)Cc1cc(C(C)C(=O)O)ccc1O2 (configuration not stated) |
| -0.11 | 320 | 30 | Cc1ccc2c(n1)Oc1ccc(C(C)C(=O)O)cc1C2 (configuration not stated) |
| 0.67 | > 100000 | – | CC(C)c1ccc2c(n1)Oc1ccc(C(C)C(=O)O)cc1C2 (configuration not stated) |
